According to patent US9302999B2, “Substituted triazoles as herbicides” (E. I. DU PONT DE NEMOURS AND COMPANY, priority 2012, dated 2016):

Columns and labels:
Type in all cases: in vivo
[1] = test system: ragweed (common ragweed, Ambrosia elation); test: Test C pre-/postemergence: ragweed
Summary of the method: (§1)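 Visual injury scored 0–100 (100 = complete control) against untreated controls after 13–15 greenhouse days. Surfactant-containing solvent formulations applied either to soil after sowing (loam/sand) or over 1- to 4-leaf plants, 2–18 cm tall.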

[2] = test system: winter wheat (Triticum aestivum); test: Test C pre-/postemergence: winter wheat
Summary of the method: as §1

[3] = test system: johnsongrass (Sorghum halepense); test: Test C pre-/postemergence: johnsongrass
Summary of the method: as §1

[4] = test system: wild oat (Avena fatua); test: Test C pre-/postemergence: wild oat
Summary of the method: as §1

[5] = test system: foxtail, giant (giant foxtail, Setaria faberii); test: Test A pre-/postemergence: foxtail, giant
Summary of the method: (§2)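 Plants in loam–sand blend were treated with test chemicals in non-phytotoxic solvent with surfactant, either as preemergence directed soil spray or postemergence at 2–10 cm, one- to two-leaf stage. After about ten days in greenhouse, injury was rated visually against untreated controls on a 0–100 scale (100 = complete control).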

[6] = test system: nutsedge, yellow (yellow nutsedge, Cyperus esculentus); test: Test C pre-/postemergence: nutsedge, yellow
Summary of the method: as §1

[7] = test system: large crabgrass (Digitaria sanguinalis); test: Test C pre-/postemergence: large crabgrass
Summary of the method: as §1

[8] = test system: blackgrass (Alopecurus myosuroides); test: Test C pre-/postemergence: blackgrass
Summary of the method: as §1

[9] = test system: soybean (Glycine max); test: Test C pre-/postemergence: soybean
Summary of the method: as §1

[10] = test system: corn (Zea mays); test: Test C pre-/postemergence: corn
Summary of the method: as §1

[11] = test system: barnyardgrass (Echinochloa crus-galli); test: Test A pre-/postemergence: barnyardgrass
Summary of the method: as §2

[12] = test system: crabgrass, large (large crabgrass, Digitaria sanguinalis); test: Test A pre-/postemergence: crabgrass, large
Summary of the method: as §2

[13] = Postemergence, 31 g ai/ha, scale 0 to 100 (0 no effect, 100 complete control)
[14] = Postemergence, 62 g ai/ha, scale 0 to 100 (0 no effect, 100 complete control)
[15] = Postemergence, 125 g ai/ha, scale 0 to 100, 0 no effect, 100 complete control
[16] = Postemergence, 250 g ai/ha, scale 0 to 100
[17] = Preemergence, 31 g ai/ha, scale of 0 to 100, 0 is no effect, 100 is complete control
[18] = Preemergence, 62 g ai/ha, scale of 0 to 100, 0 is no effect, 100 is complete control
[19] = Preemergence, 125 g ai/ha, scale 0 to 100, 0 no effect, 100 complete control
[20] = Preemergence, 250 g ai/ha, scale 0 to 100, 0 no effect, 100 complete control
[21] = Postemergence, 125 g ai/ha, 0 to 100 scale, 0 is no effect, 100 is complete control
[22] = Postemergence, 500 g ai/ha, visual rating on 0 to 100 scale (0 no effect, 100 complete control), approximately ten days
[23] = Preemergence, 125 g ai/ha, 0 to 100 scale where 0 is no effect and 100 is complete control
[24] = Preemergence, 500 g ai/ha, 0 to 100 scale (0 no effect, 100 complete control)

CCCc1nn(-c2ccc(F)cc2)nc1Cc1ccnc(C(F)(F)F)c1 [Compound 153]
50: Plant response rating, Oat, Wild [4, 14] | Plant response rating, Crabgrass, Large [7, 13]
100: Foxtail, Giant plant response rating [5, 22] | Plant response rating, Foxtail, Giant [5, 23] | Plant response rating, Foxtail, Giant [5, 24] | Plant response rating, Crabgrass, Large [7, 17] | Plant response rating, Crabgrass, Large [7, 18] | Plant response rating, Crabgrass, Large [7, 19] | Plant response rating, Crabgrass, Large [7, 20] | Plant response rating, Barnyardgrass [11, 23] | Plant response rating, Barnyardgrass [11, 24] | Plant response rating, Crabgrass, Large [12, 21] | Crabgrass, Large plant response rating [12, 22] | Plant response rating, Crabgrass, Large [12, 23] | Plant response rating, Crabgrass, Large [12, 24]
45: Plant response rating, Corn [10, 15]
40: Plant response rating, Johnsongrass [3, 13]
25: Plant response rating, Corn [10, 14] | Plant response rating, Corn [10, 18] | Plant response rating, Corn [10, 19]
85: Plant response rating, Ragweed [1, 16] | Plant response rating, Oat, Wild [4, 16] | Plant response rating, Soybean [9, 16]
30: Plant response rating, Wheat [2, 14] | Plant response rating, Wheat [2, 15] | Plant response rating, Wheat [2, 16]
35: Plant response rating, Wheat [2, 18] | Plant response rating, Oat, Wild [4, 13] | Plant response rating, Soybean [9, 19] | Plant response rating, Soybean [9, 20] | Plant response rating, Corn [10, 20]
20: Plant response rating, Soybean [9, 17] | Plant response rating, Soybean [9, 18] | Plant response rating, Corn [10, 13]
90: Plant response rating, Johnsongrass [3, 16] | Plant response rating, Johnsongrass [3, 17] | Plant response rating, Johnsongrass [3, 18] | Plant response rating, Foxtail, Giant [5, 21] | Plant response rating, Crabgrass, Large [7, 16] | Plant response rating, Blackgrass [8, 16] | Plant response rating, Blackgrass [8, 17] | Plant response rating, Blackgrass [8, 18] | Plant response rating, Blackgrass [8, 19] | Plant response rating, Blackgrass [8, 20] | Plant response rating, Barnyardgrass [11, 21] | Barnyardgrass plant response rating [11, 22]
15: Plant response rating, Nutsedge, Yellow [6, 15] | Plant response rating, Nutsedge, Yellow [6, 16]
80: Plant response rating, Ragweed [1, 15] | Plant response rating, Ragweed [1, 19] | Plant response rating, Ragweed [1, 20] | Plant response rating, Crabgrass, Large [7, 15]
60: Plant response rating, Wheat [2, 19] | Plant response rating, Wheat [2, 20] | Plant response rating, Johnsongrass [3, 15] | Plant response rating, Blackgrass [8, 14]
0: Plant response rating, Nutsedge, Yellow [6, 17] | Plant response rating, Nutsedge, Yellow [6, 18]
5: Plant response rating, Ragweed [1, 17] | Plant response rating, Nutsedge, Yellow [6, 19]
98: Plant response rating, Johnsongrass [3, 20]
70: Plant response rating, Oat, Wild [4, 15] | Plant response rating, Blackgrass [8, 15] | Plant response rating, Soybean [9, 14] | Plant response rating, Soybean [9, 15]
10: Plant response rating, Ragweed [1, 18] | Plant response rating, Wheat [2, 13] | Plant response rating, Nutsedge, Yellow [6, 13] | Plant response rating, Nutsedge, Yellow [6, 14] | Plant response rating, Corn [10, 17]
95: Plant response rating, Johnsongrass [3, 19]
55: Plant response rating, Ragweed [1, 13] | Plant response rating, Ragweed [1, 14] | Plant response rating, Crabgrass, Large [7, 14] | Plant response rating, Blackgrass [8, 13] | Plant response rating, Soybean [9, 13] | Plant response rating, Corn [10, 16]

Cc1nn(-c2ccc(F)c(C(F)(F)F)c2)nc1Oc1ccnc(C(F)(F)F)c1 [Compound 147]
55: Plant response rating, Johnsongrass [3, 18]
98: Plant response rating, Johnsongrass [3, 20] | Plant response rating, Crabgrass, Large [7, 17]
85: Plant response rating, Oat, Wild [4, 19] | Plant response rating, Blackgrass [8, 18]
70: Plant response rating, Ragweed [1, 19] | Plant response rating, Oat, Wild [4, 18] | Foxtail, Giant plant response rating [5, 21]
60: Plant response rating, Oat, Wild [4, 17]
95: Plant response rating, Johnsongrass [3, 19] | Plant response rating, Oat, Wild [4, 20]
25: Plant response rating, Ragweed [1, 17] | Plant response rating, Corn [10, 19]
80: Plant response rating, Ragweed [1, 20] | Foxtail, Giant plant response rating [5, 22] | Barnyardgrass plant response rating [11, 21] | Barnyardgrass plant response rating [11, 22] | Crabgrass, Large plant response rating [12, 21]
15: Plant response rating, Nutsedge, Yellow [6, 20]
10: Plant response rating, Corn [10, 17] | Plant response rating, Corn [10, 18]
0: Plant response rating, Nutsedge, Yellow [6, 17] | Plant response rating, Nutsedge, Yellow [6, 18] | Plant response rating, Nutsedge, Yellow [6, 19]
20: Plant response rating, Soybean [9, 18] | Plant response rating, Soybean [9, 19]
35: Plant response rating, Soybean [9, 20] | Plant response rating, Corn [10, 20]
90: Plant response rating, Blackgrass [8, 19] | Plant response rating, Blackgrass [8, 20] | Plant response rating, Barnyardgrass [11, 23] | Crabgrass, Large plant response rating [12, 22]
45: Plant response rating, Wheat [2, 20]
5: Plant response rating, Wheat [2, 18]
40: Plant response rating, Ragweed [1, 18] | Plant response rating, Johnsongrass [3, 17]
30: Plant response rating, Wheat [2, 19]
100: Plant response rating, Foxtail, Giant [5, 23] | Plant response rating, Foxtail, Giant [5, 24] | Plant response rating, Crabgrass, Large [7, 18] | Plant response rating, Crabgrass, Large [7, 19] | Plant response rating, Crabgrass, Large [7, 20] | Plant response rating, Barnyardgrass [11, 24] | Plant response rating, Crabgrass, Large [12, 23] | Plant response rating, Crabgrass, Large [12, 24]
50: Plant response rating, Blackgrass [8, 17]
